Source: US20220220106A1, “QUINOLINE COMPOUNDS AND PHARMACEUTICAL COMPOSITIONS AND USES THEREOF” (Academy of Military Medical Sciences, priority 2019, published 2022)
pIC50: −log10 of the molar value. Where two headings read alike, the source gives them in different places.

Legend:
mTOR kinase = biological target: T1, mTOR kinase (Homo sapiens, UniProt P42345); test: In vitro inhibitory activity on mTOR kinase (TR-FRET, GFP-4E-BP1 substrate); assay type: biochemical; settings: for pIC50: 0.5 μg/mL mTOR, 0.4 μM GFP-4E-BP1, 3 μM ATP
T1 construct: purchased Thermo Fisher PV4753
T1 sequence (P42345 1360-2549 limits assumed): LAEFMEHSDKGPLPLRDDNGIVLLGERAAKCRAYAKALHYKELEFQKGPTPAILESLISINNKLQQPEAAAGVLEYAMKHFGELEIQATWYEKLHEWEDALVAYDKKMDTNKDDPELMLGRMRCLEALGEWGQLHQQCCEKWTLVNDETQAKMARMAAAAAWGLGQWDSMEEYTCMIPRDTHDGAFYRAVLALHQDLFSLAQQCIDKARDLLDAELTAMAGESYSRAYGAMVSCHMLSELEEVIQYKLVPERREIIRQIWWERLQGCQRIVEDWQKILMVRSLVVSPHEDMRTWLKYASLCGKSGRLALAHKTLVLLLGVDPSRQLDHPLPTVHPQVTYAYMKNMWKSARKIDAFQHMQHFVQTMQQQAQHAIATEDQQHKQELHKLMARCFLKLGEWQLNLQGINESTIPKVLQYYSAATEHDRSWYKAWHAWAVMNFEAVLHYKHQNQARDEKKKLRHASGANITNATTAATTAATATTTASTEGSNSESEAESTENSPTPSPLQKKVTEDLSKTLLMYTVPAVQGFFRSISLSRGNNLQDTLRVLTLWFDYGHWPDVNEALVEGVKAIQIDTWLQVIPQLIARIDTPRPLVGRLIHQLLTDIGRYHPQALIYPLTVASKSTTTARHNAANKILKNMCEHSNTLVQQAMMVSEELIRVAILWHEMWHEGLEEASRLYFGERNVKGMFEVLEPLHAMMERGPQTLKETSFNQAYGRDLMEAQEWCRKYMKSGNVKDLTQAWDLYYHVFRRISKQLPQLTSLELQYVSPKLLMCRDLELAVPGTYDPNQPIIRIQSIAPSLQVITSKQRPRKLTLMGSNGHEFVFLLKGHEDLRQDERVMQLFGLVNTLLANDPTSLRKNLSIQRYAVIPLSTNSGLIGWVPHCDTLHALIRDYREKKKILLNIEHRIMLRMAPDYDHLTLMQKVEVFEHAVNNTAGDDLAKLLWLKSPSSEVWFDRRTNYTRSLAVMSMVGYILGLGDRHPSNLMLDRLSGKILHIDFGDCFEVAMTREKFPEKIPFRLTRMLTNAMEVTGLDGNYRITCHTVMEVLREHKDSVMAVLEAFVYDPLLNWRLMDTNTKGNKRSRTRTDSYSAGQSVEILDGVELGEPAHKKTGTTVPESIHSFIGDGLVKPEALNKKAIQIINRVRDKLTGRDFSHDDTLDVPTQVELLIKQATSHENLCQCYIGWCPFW
Procedure: Preparation of Reaction Buffers:
Basic buffer composition: 50 mM (mmol/L) HEPES (pH 7.5), 1 mM EGTA, 0.01% Tween-20, 10 mM MnCl2, 2 mM DTT (diluted from 500 mM before used).
(2) mTOR kinase buffer solution: 1650 μL of 2.5×mTOR kinase buffer solution was composed of 1640.2 μL of 1× basic buffer and 9.8 μL of mTOR (0.21 mg/mL stock solution), and the final concentration was 0.5 μg/mL.
(3) Detection buffer solution: 3960 μL of 2× detection buffer solution was composed of 3797.1 μL of TR-FRET buffer diluent (purchased from Thermo Fisher, catalog number: PV3574), 4.5 μL of Tb-anti-p4E-BP1 antibody (3.49 μM stock solution, purchased from Thermo Fisher, catalog number: PV4757) and 158 μL of EDTA (500 mM stock solution), and the final concentrations were 2 nM Tb-anti-p4E-BP1 antibody and 10 mM EDTA.
(1) 20 μL of 100% DMSO solution containing 5 mM compound to be tested was added to a 96-well plate.
(2) The compound was serially diluted 3 times in DMSO.
(3) 1 μL of the compound in the previous step was taken, diluted with 19 μL of mTOR kinase buffer, and transferred to another 96-well plate.
(4) 4 μL of mTOR kinase solution (purchased from Thermo Fisher, catalog number: PV4753) was added to a 384-well plate.
(5) 2 μL of the compound in G was taken out and added to the 384-well plate with mTOR kinase, and incubated at room temperature for 15 minutes.
(6) 4 μL of substrate solution was added to initiate the reaction.
The final concentrations of mTOR reaction solution were: 0.5 μg/mL mTOR, 0.4 μM GFP-4E-BP1, 3 μM ATP.
The final concentration of the DMSO solution was 1%.
(7) Incubation was performed for 60 minutes at room temperature.
(8) 10 μL of detection buffer was added. The final concentrations were 2 nM Tb-anti-p4E-BP1 antibody and 10 mM EDTA.
(9) Incubation was performed for 30 minutes at room temperature.
(10) TR-FRET value was read on MD5 multi-mode plate reader (Molecular Devices). The excitation wavelength was 340 nm, the emission wavelength 1 was 495 nm, and the emission wavelength 2 was 520 nm. The ratio of 520 nm/495 nm readings was calculated as TR-FRET value.
IC50 of compound was fitted by nonlinear regression equation:
Y=Bottom+(Top-Bottom)/(1+10^((LogIC50-X)*HillSlope));
X: common logarithm value of compound concentration; Y: TR-FRET value (520 nm/495 nm).

[1] = In vivo drug metabolism (pharmacokinetics) in mice, iv and po; parameters: species or system C57 male mice; settings: for Tmax / AUC / clearance / half-life / Vd / C0 / Cmax: male, plasma; for Tmax: C57, mouse, po, 10 mg/kg; for AUC / clearance / half-life / Vd / C0 / Cmax: mouse; for clearance: read-out: CL iv; for Vd: read-out: Vss iv
Procedure: Experimental animals: C57 male mice (purchased from Beijing Vital River Laboratory Animal Technology Co., Ltd.), bred for 6-8 weeks and weighing 20-30 g, 3 mice in each group of iv/po groups, a total of 6 groups.
Preparation of Sample Solutions:
(1) Preparation of sample solution (1 mg/kg, 5 mL/kg) for injection (iv): 1 mg of the sample to be tested was dissolved in 0.5 mL DMSO, mixed by a vortex mixer, and treated ultrasonically to obtain a stock solution (2 mg/mL); 0.10 mL of the stock solution (2 mg/mL) was added to a vial, then 0.4 mL of PEG400 and 0.5 mL of water were added, and mixed by a vortex shaker, treated ultrasonically to obtain a sample solution with a concentration of 0.2 mg/mL.
(2) Preparation of sample solution (10 mg/kg, 10 mL/kg) for oral administration (po): 1 mg of the sample to be tested was dissolved in 1 mL of “0.5% CMC/0.1% Tween-80 aqueous solution”, mixed by a vortex mixer, and treated ultrasonically to obtain a suspension of the sample to be tested with a concentration of 1 mg/mL.
Liquid Chromatography Method:
(1) Chromatographic column: Waters XSELECT CSH C18, 2.5 μm 2.1×50 mm chromatographic column.
(2) Mobile phase: Phase A: 5% acetonitrile in aqueous solution (0.1% formic acid); Phase B: 95% acetonitrile in aqueous solution (0.1% formic acid).
(3) Flow rate: 0.6 mL/min.
(4) Sampling volume: 20 μL.
For each compound, po group and iv group were set for administration. All experimental animals were fasted overnight before administration, and all administration was performed at room temperature.
Sampling time: for iv group, sampling was performed at 0.083, 0.25, 0.5, 1, 2, 4, 8 and 24 hours after injection administration (iv); for po group, sample was performed at 0.25, 0.5, 1, 2, 4, 8 and 24 hours after oral administration (po).
(1) At each time point, about 0.03 mL of blood was collected. The blood of each sample was transferred to a plastic microcentrifuge tube containing heparin sodium anticoagulant, mixed well with the anticoagulant, and then cooled on ice and centrifuged.
(2) The blood sample was centrifuged at 4000 rpm for 5 minutes at 4° C. to obtain plasma.
(3) The samples was stored in a refrigerator at −75±15° C. for later test.
Analysis and Identification:
The mixed solution of acetonitrile and water (1:1) was used to dilute the stock solution to prepare a series of working solutions.
3 μL of working solution (5, 10, 20, 50, 100, 500, 1000, 5000, 10000 ng/mL) was added to 30 μL of C57 mouse blank plasma to obtain a standard solution with a concentration of 0.5-1000 ng/mL (0.5, 1, 2, 5, 10, 50, 100, 500, 1000 ng/mL), in total of 33 μL. Four quality control samples of 1 ng/mL, 2 ng/mL, 50 ng/mL and 800 ng/mL were used to calibrate the standard curve.
(2) The quality control samples were prepared on the day of analysis, and the method was the same as the standard solution.
(3) 200 μL of acetonitrile containing internal standard solution was added to 33 μL of standard samples, 33 μL of quality control samples and 33 μL of unknown sample (30 μL of plasma and 3 μL of blank solution) to precipitate protein, respectively. The samples were mixed by a vortex mixer for 30 seconds and mixed well. The precipitated samples were centrifuged for 15 minutes at 4° C. and 4000 rpm.
(4) The supernatant was pipetted quantitatively and diluted by 3 times with water, then the diluted supernatant was loaded and quantitatively analyzed by liquid chromatography-mass spectrometry technology.
(5) Detection data were obtained, and pharmacokinetic parameters such as T1/2, Cmax, AUC, AUC, CL, Vss, F were calculated.

[2] = iv 1 mg/kg, C57 mice, read-out: AUC iv
[3] = iv 1 mg/kg, C57 mice, read-out: T1/2 iv (converted)
[4] = po 10 mg/kg, C57 mice, read-out: AUC po
[5] = po 10 mg/kg, C57 mice, read-out: T1/2 po (converted)

Row | Structure (SMILES) | melting point [°C] | inhibitory activity on mTOR kinase, in words (mTOR kinase) | pIC50 (mTOR kinase) | other results
1 | CC(=O)/C=C/c1cnc2ccc(-c3ccc(C)nc3)cc2c1Nc1cccc(C(F)(F)F)c1 [HTL-2-38, (E)-6-[3-(6-methyl)pyridyl]-4-[3-(trifluoromethyl)phenyl]aminoquinoline-3-butenone] | 172 to 174 | weak inhibitory activity | 5.99 | –
2 | NC(=O)c1ccc(-c2ccc3ncc4oc(=O)n(-c5cccc(C(F)(F)F)c5)c4c3c2)cc1 [HTL-5-21, 8-(4-carbamoyl)phenyl-1-[3-(trifluoromethyl)phenyl]oxazolo[5,4-c]quinolin-2(1H)-one] | 294 to 296 | better inhibitory activity | 7.82 | –
3 | NC(=O)/C=C/c1ccc2ncc3oc(=O)n(-c4cccc(C(F)(F)F)c4)c3c2c1 [HTL-6-30, (E)-8-(2-carbamoyl-vinyl)-1-[3-(trifluoromethyl)phenyl]oxazolo[5,4-c]quinolin-2(1H)-one] | 291 to 292 | better inhibitory activity | 7.32 | –
4 | CCC(=O)Nc1ccc(-c2ccc3ncc4ccc(=O)n(-c5cccc(C(F)(F)F)c5)c4c3c2)cn1 [HTL-6-45, 9-[3-(6-propionylamino)pyridyl]-2-oxo-1-[3-(trifluoromethyl)phenyl]-1,2-dihydrobenzo[h][1,6]naphthyridine] | – | – | 7.53 | apparent volume of distribution (Vss), in words ([1]; iv, C57 mice): slightly higher; clearance rate (CL), in words ([1]; iv, C57 mice): relatively higher clearance rate; Tmax ([1]; po 10 mg/kg, read-out: Tmax po): 15 min; Tmax ([1]; read-out: peak time Tmax): 15 min; AUC [1, 2]: 95 ng·h/mL; clearance ([1]; iv 1 mg/kg, C57 mice): 176 mL/min/kg; half-life [1, 3]: 19.4 min; Vd ([1]; iv 1 mg/kg, C57 mice): 3.25 L/kg; AUC [1, 4]: 35.4 ng·h/mL; half-life [1, 5]: 50.4 min; C0 ([1]; iv 1 mg/kg, C57 mice): 398 ng/mL; Cmax ([1]; po 10 mg/kg, C57 mice): 42.9 ng/mL; F po ([1]; oral bioavailability, po 10 mg/kg vs iv 1 mg/kg, C57 mice): 3.89%
5 | O=c1ccc2cnc3ccc(-c4ccc5ncccc5c4)cc3c2n1-c1cccc(C(F)(F)F)c1 [HTL-6-47, 9-(6-quinolyl)-2-oxo-1-[3-(trifluoromethyl)phenyl]-1,2-dihydrobenzo[h][1,6]naphthyridine] | 196 to 197 | excellent inhibitory activity | 8.21 | –
6 | O=c1ccc2cnc3ccc(-c4cccnc4F)cc3c2n1-c1cccc(C(F)(F)F)c1 [HTL-6-48, 9-[3-(2-fluoro)pyridyl]-2-oxo-1-[3-(trifluoromethyl)phenyl]-1,2-dihydrobenzo [h][1,6]naphthyridine] | – | – | 7.50 | highest blood concentration C0/Cmax, in words ([1]; C57 mice): relatively high; apparent volume of distribution (Vss), in words ([1]; iv, C57 mice): lower; area under curve (AUC) through injection administration route, in words ([1]; iv, C57 mice): relatively high; Tmax ([1]; po 10 mg/kg, read-out: Tmax po): 15 min; Tmax ([1]; read-out: peak time Tmax): 15 min; AUC [1, 2]: 651 ng·h/mL; clearance ([1]; iv 1 mg/kg, C57 mice): 25.6 mL/min/kg; half-life [1, 3]: 50.4 min; Vd ([1]; iv 1 mg/kg, C57 mice): 1.59 L/kg; AUC [1, 4]: 1330 ng·h/mL; half-life [1, 5]: 59.4 min; C0 ([1]; iv 1 mg/kg, C57 mice): 651 ng/mL; Cmax ([1]; po 10 mg/kg, C57 mice): 1290 ng/mL
7 | O=c1ccc2cnc3ccc(-c4cc[nH]n4)cc3c2n1-c1cccc(C(F)(F)F)c1 [HTL-6-50, 9-[(1H)-3-pyrazolyl]-2-oxo-1-[3-(trifluoromethyl)phenyl]-1,2-dihydrobenzo[h][1,6]naphthyridine] | 283 to 286 | moderate inhibitory activity | 6.80 | –
8 | COc1ncc(-c2ccc3ncc4ccc(=O)n(-c5cccc(C(F)(F)F)c5)c4c3c2)cn1 [HTL-7-06, 9-[5-(2-methoxy)pyrimidyl]-2-oxo-1-[3-(trifluoromethyl)phenyl]-1,2-dihydrobenzo[h][1,6]naphthyridine] | 262 to 264 | excellent inhibitory activity | 8.32 | –
9 | COc1ccc(CC(=O)Nc2ccc(-c3ccc4ncc5ccc(=O)n(-c6cccc(C(F)(F)F)c6)c5c4c3)cn2)cc1 [HTL-7-11, 9-{3-[6-(4-methoxy)phenylacetylamino]pyridyl}-2-oxo-1-[3-(trifluoromethyl)phenyl]-1,2-dihydrobenzo[h][1,6]naphthyridine] | 241 to 243 | – | 7.49 | –
10 | O=c1ccc2cnc3ccc(C4=CCC5(CC4)OCCO5)cc3c2n1-c1cccc(C(F)(F)F)c1 [HTL-7-13, 9-(1,4-dioxa-spiro[4.5]dec-7-en-8-yl)-2-oxo-1-[3-(trifluoromethyl)phenyl]-1,2-dihydrobenzo[h][1,6]naphthyridine] | 210 to 211 | – | 7.06 | –
11 | COc1cc(-c2ccc3ncc4ccc(=O)n(-c5cccc(C(F)(F)F)c5)c4c3c2)cnc1N [HTL-7-19, 9-[3-(6-amino-5-methoxy)pyridyl]-2-oxo-1-[3-(trifluoromethyl)phenyl]-1,2-dihydrobenzo[h][1,6]naphthyridine] | 233 to 234 | excellent inhibitory activity | 8.12 | –
